According to the supplement of paper PMC10307832:

Key:
Assay in all cases: relative viability (nuclei count vs DMSO), 5 days (fraction); higher = more cells survive
[1] = compound: C/C(=N\NC(=S)N1CCC1)/C2=CC=CC=N2 + Cc1nc(NC(=O)N2CCC[C@H]2C(N)=O)sc1-c1ccnc(C(C)(C)C(F)(F)F)c1 [Alpelisib] (partner 2 µM)
Method in brief: (§1)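 Lung cancer cell lines were seeded in 1536-well plates and dosed by pin tool the next day, with either a single drug or a fixed anchor-drug dose combined with five library-drug doses (not always all listed) spaced in √10 steps. Five days later, one step fixed the cells and stained their nuclei (final 0.05% Triton X-100, 1% formaldehyde, 1 ug/ml Hoechst), and nuclei were counted on 4× images. Relative viability is the nuclei count in treated wells divided by the count in vehicle wells, and each value is the median of duplicate plates.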

[2] = compound: C/C(=N\NC(=S)N1CCC1)/C2=CC=CC=N2 + Cc1nc(Nc2ncc(C(=O)Nc3c(C)cccc3Cl)s2)cc(N2CCN(CCO)CC2)n1 [Dasatinib] (partner 0.075 µM)
Method in brief: as §1

[3] = compound: C/C(=N\NC(=S)N1CCC1)/C2=CC=CC=N2 + CC(=O)c1c(C)c2cnc(Nc3ccc(N4CCNCC4)cn3)nc2n(C2CCCC2)c1=O [Palbociclib] (partner 0.5 µM)
Method in brief: as §1

[4] = compound: C/C(=N\NC(=S)N1CCC1)/C2=CC=CC=N2 + CC(C)C[C@H](NC(=O)[C@H](Cc1ccccc1)NC(=O)c1cnccn1)B(O)O [Bortezomib] (partner 0.002 µM)
Method in brief: as §1

Cell Line	relative viability ([1]; first compound 0.05 µM)	relative viability ([1]; first compound 0.1581 µM)	relative viability ([1]; first compound 0.5 µM)	relative viability ([1]; first compound 1.581 µM)	relative viability ([1]; first compound 5 µM)	relative viability ([2]; first compound 0.05 µM)	relative viability ([2]; first compound 0.1581 µM)	relative viability ([2]; first compound 0.5 µM)	relative viability ([2]; first compound 1.581 µM)	relative viability ([2]; first compound 5 µM)	relative viability ([3]; first compound 0.05 µM)	relative viability ([3]; first compound 0.1581 µM)	relative viability ([3]; first compound 0.5 µM)	relative viability ([3]; first compound 1.581 µM)	relative viability ([3]; first compound 5 µM)	relative viability ([4]; first compound 0.05 µM)	relative viability ([4]; first compound 0.1581 µM)	relative viability ([4]; first compound 0.5 µM)	relative viability ([4]; first compound 1.581 µM)	relative viability ([4]; first compound 5 µM)
NCI-H441	0.159	0.173	0.174	0.166	0.146	0.143	0.15	0.159	0.108	0.156	0.13	0.112	0.124	0.0967	0.105	0.162	0.153	0.171	0.146	0.127
NCI-H1793	0.245	0.179	0.169	0.168	0.191	0.113	0.145	0.151	0.121	0.145	0.191	0.162	0.146	0.155	0.174	–	–	–	–	–
NCI-H23	0.128	0.148	0.141	0.128	0.155	0.128	0.142	0.177	0.121	0.142	0.143	0.174	0.168	0.133	0.164	0.108	0.148	0.171	0.105	0.136
HARA	0.31	0.0915	0.122	0.145	0.0798	0.0909	0.0673	0.0699	0.063	0.083	0.188	0.133	0.233	0.139	0.164	0.22	0.143	0.197	0.13	0.0787
NCI-H1792	0.457	0.373	0.153	0.114	0.085	0.483	0.294	0.256	0.271	0.196	0.426	0.398	0.363	0.272	0.259	0.478	0.5	0.219	0.16	0.126
NCI-H1703	0.0878	0.0975	0.132	0.112	0.122	–	–	–	–	–	–	–	–	–	–	0.0746	0.0958	0.166	0.134	0.171
NCI-H2342	–	–	–	–	–	0.297	0.283	0.258	0.249	0.284	0.276	0.283	0.274	0.253	0.255	–	–	–	–	–
CAL-12T	0.148	0.146	0.126	0.127	0.121	0.0937	0.0896	0.054	0.0962	0.0819	0.0958	0.145	0.131	0.109	0.122	0.21	0.252	0.256	0.215	0.24
NCI-H727	0.191	0.152	0.19	0.175	0.147	0.204	0.24	0.236	0.242	0.274	0.346	0.393	0.363	0.314	0.439	0.171	0.214	0.156	0.174	0.184
